Laboratory results reported in patent publication US10363282B2, “Analogs of C5a and methods of using same” (priority 2010, dated 2019).
Like-named read-outs stand apart in the source and are kept apart here. Where no end group is shown, it is not given here. [ ]: non-standard residue; d: D form. NMeL = CN[C@@H](CC(C)C)C(=O)O

Legend:
neutrophils = assay: In vivo neutrophil chemotaxis: histopathology and myeloperoxidase assay; set-up: species or system CD1 mice; settings: for histopathologic analysis of skin tissue: 250 μg s.c., no bacteria
Experimental: Neutrophil chemotaxis and myeloperoxidase assay. Neutrophil recruitment at the site of injection by EP67 or sEP67 was examined using an in vivo chemotaxis assay as described previously (van Sorge N M, et al., PloS One 2008; 3:e2964). Briefly, 250 μg EP67 or sEP67 were injected subcutaneously into the right flank of CD1 mice. The injection was repeated after 24 h. Mice were euthanized 4 h after the second injection and the site of injection excised for histopathoglogic analysis or determination of myeloperoxidase (MPO) activity as described previously (van Sorge N M, et al., supra). The assay was carried out two times and the samples analyzed in duplicate.
Neutrophil influx is essential for the protective action of EP67. […] Neutrophil recruitment to the site of EP67 injection was further analyzed using an in vivo neutrophil recruitment assay as described previously (van Sorge N M, et al., supra; and Banerjee A, et al., Cell Microbiol; 12:1576-1588). Neutrophil migration was assessed in skin homogenates following injection of EP67 or sEP67 by determining the level of neutrophil enzyme myeloperoxidase (MPO), which serves as an effective indication of neutrophil infiltration (Banerjee A, et al., supra; and Bradley P P, et al., J Invest Dermatol 1982; 78:206-209). This method compares well with other in vivo assays of neutrophil chemotaxis (van Sorge N M, et al., supra).

E. coli strain DH5α = assay: E. coli growth (OD600) with peptide; type: cell-based; settings: for effect on log phase growth (OD600): added at OD600 0.2, 500 μg/m, LB or TSB
Experimental: E. coli strain DH5α was grown overnight in mls of Lennox Broth (LB). This culture was diluted to an optical density at […] (OD600) of 0.06. The diluted E.coli was dispensed in 1.5 ml aliquots into separate tubes and 1.5 ml of EP67 (YSFKDMP(MeL)aR (SEQ ID NO: 4)), EP54 (YSFKPMPLaR (SEQ ID NO: 3)), scrambled-EP67 (s-EP67) or scrambled-EP54 in LB was added to obtain a final concentration of 500 μg/ml with the E. coli at an OD600 of 0.03. A culture in LB was also prepared. The cultures were incubated at 37° C. with shaking and the OD600 readings recorded hourly. In order to determine whether the growth media altered the effectiveness of EP67, LB was replaced with an alternative growth media, Tryptic Soy Broth (TSB).
To test the efficacy of EP67 on bacteria growing in log phase, overnight cultures of DH5α were grown in either LB or TSB. The cultures were diluted to an OD600 of 0.03 and incubated at 37° C. with shaking until they reached an OD600 of 0.2 at which time either EP67 or s-EP67, in the appropriate media, were added to a final concentration of 500 μg/m. DH5α control cultures (absence of additives) were also prepared. The tubes were further shaken at 37° C. and OD600 readings were taken hourly.

MRSA = type: in vivo, C57B1/6 mice; settings: for lesion size in CD88 −/− background vs EP67-treated CD88 +/+ background: mouse, in vivo
influenza A/A/PR/8 = assay: Influenza-induced weight loss after one EP67 treatment; type: in vivo, mice
influenza A/PR/8 = type: in vivo, mice; settings: uninfected animals treated with EP67, one day later
[1] = system: S. aureus (USA300 LAC strain) biofilm; assay: S. aureus catheter biofilm model; settings: Day 3, relative to sEP67 and PBS vehicle
Experimental: A S. aureus (USA300 LAC strain) biofilm was established on a hollow catheter (1 cm in length) inserted subcutaneously into C57BL/6 mice by introducing 1000 CFUs of S. aureus into the catheter lumen. At the time of infection, one dose of EP67 (200 μg/ml dissolved in PBS) was introduced. At both 24 and 48 h following infection, a series of four injections of EP67 were made; two into each open end of the catheter (20 μl each) and two along the top and bottom at points perpendicular to the middle of the catheter (50 μl each). Samples of the biofilm and surrounding tissue were obtained at Day 3 and assessed for the presence of viable bacteria by standard culture methods.

[2] = system: bronchoalveolar lavage (BAL) cells; assay: BAL cell FACS analysis after EP67 insufflation; type: in vivo, mice
Experimental: In short, EP67 (3 mg/kg) was delivered directly to the lungs of mice through insufflation (IN). […] Lungs were lavaged with PBS to isolate the bronchoalveolar lavage (BAL) cells for staining and FACS analysis.

GBS = assay: Group B Streptococcus (GBS) meningitis model; type: in vivo, CD1 mice; settings: 250 ug i.p. at day −1, 0, 1 and 2; brain and blood cfu 96 hours post-injection
Experimental: 8-week old female CD1 mice were treated with 250 ug of EP67 or s-EP67 at day −1, 0, 1 and 2 via i.p. injection. GBS was injected via i.p. at 1×10^9 cfu/mouse. Brains and blood were harvested from each mouse 96 hours post-injection. The tissue was homogenized, diluted and plated to determine the cfu/g bacteria.

influenza = assay: ELISA for anti-influenza antibodies in serum; type: in vivo, mice; settings: each EP67 treatment group
[3] = system: S. aureus (Newman strain); assay: S. aureus in vitro EP67 killing curves; type: cell-based; settings: dilution series, LB; higher concentrations
Experimental: 150 μl of LB growth medium plus 50 μl of EP67 or s-EP67 were added to individual culture wells resulting in a dilution series of 6 wells per EP67 or s-EP67. A “no EP67” well (control) was included at the end of each series. S. aureus (Newman strain) was allowed to grow to an OD600 of 0.4 and each well of the dilution series was inoculated with 5μl of the culture. Two wells with no bacterial inoculums were included to serve as controls. Plates were incubated at 37° C. with agitation and the OD600 of each well was measured hourly using a plate reader.

[4] = system: bronchoalveolar lavage (BAL) cells; assay: BAL cell response of aged mice to EP67 insufflation; type: in vivo
[5] = EP67 3 mg/kg insufflation, one day later

(MeL)RMYKPaFDS ([NMeL]RMYKP[dA]FDS) [sEP67, reference compound]
histopathologic analysis of skin tissue (neutrophils): normal pathology
effect on log phase growth (OD600) (E. coli strain DH5α): little or no effect on growth
lesion size in CD88 −/− background vs EP67-treated CD88 +/+ background (MRSA): significantly larger

YSFKDMP(MeL)aR (YSFKDMP[NMeL][dA]R; listed as Homo sapiens) [EP67, C-terminal analog of human C5a]
protection from influenza-induced morbidity (influenza A/A/PR/8; treated on day 2 after infection): not associated with any protection
protection from influenza-induced morbidity (influenza A/A/PR/8; treated on day 3 after infection): not associated with any protection
influenza-induced weight loss (influenza A/A/PR/8; treated one day after infection): significant protection from influenza-induced weight loss
influenza-induced weight loss (influenza A/A/PR/8; treated the day before infection, vs non-treated animals): lost significantly less weight
influenza-induced weight loss (influenza A/A/PR/8; treated the day of infection, vs non-treated animals): lost significantly less weight
influx of innate effectors (exMacs, neutrophils) in BAL (influenza A/PR/8): displayed this influx of innate effectors
bacterial burdens in surrounding tissue [1]: significant decrease in bacterial burdens
bacterial burdens within the biofilm [1]: significant decrease in bacterial burdens
CD11b+CD11c− cells (GR-1+ neutrophils) in alveolar space [2, 5]: a large population of CD11b^+CD11c^− cells appeared in the alveolar space
exudate macrophages (exMac) in BAL cells [2, 5]: appearance of cells bearing the CD11b^+CD11c^+ phenotype of exudate macrophages (exMac)
dose dependence of EP67-induced changes in BAL populations ([2]; mouse, in vivo): strict dose-response
time course of the EP67 response in BAL cells: neutrophils ([2]; seven days post EP67 administration): the neutrophils were largely lost
myeloperoxidase (MPO) levels in skin homogenates (accumulating neutrophils) (neutrophils; 250 μg s.c. twice, 4 h after second injection, compared to sEP67): significantly higher
histopathologic analysis of skin tissue (neutrophils): massive influx of inflammatory cells, including neutrophils
protection against GBS infection in the central nervous system (GBS): protects against GBS infections in the central nervous system
anti-influenza Abs in serum (influenza): high concentration of anti-influenza Abs
effect on bacterial growth (OD600) (E. coli strain DH5α; 500 μg/ml, start OD600 0.03, LB or TSB): direct bacteriostatic/bacteriocidal effects
effect on log phase growth (OD600) (E. coli strain DH5α): significantly reduce and/or stop log phase growth
effect on bacterial growth (OD600) [3]: dose dependent inhibitory effect
exMacs and neutrophils in alveolar space [4]: a large population of exMAcs and neutrophils into the alveolar space
lesion size (MRSA; CD88 −/− animals, EP67 vs sEP67): no difference in lesion size
lesion size in CD88 −/− background vs EP67-treated CD88 +/+ background (MRSA): significantly larger
lesion size (MRSA; wild-type CD88 +/+ animals, EP67 compared to sEP67): significantly smaller lesions
